{"source": "patent US6645508B1", "about": "“Stable L-ascorbic acid composition” (priority 1999, dated 2003)", "origin": "cited, not measured here", "tested_on": "human skin fibroblasts", "conditions": "at concentrations equivalent to L-Ascorbic acid"}
{"smiles": "CCCCCCCCCCCCCCCC(=O)OC[C@H](O)[C@H]1OC(=O)C(O)=C1O", "note": "[ascorbyl palmitate]", "values": [{"measurement": "effect on human skin fibroblasts", "result": "killed human skin fibroblasts"}]}
